Measured values taken from patent publication US5500429A, “Calcium uptake inhibitors” (Merrell Pharmaceuticals Inc., priority 1993, dated 1996).

Assays:
[1] = test system: Lewis rats, adjuvant-induced arthritis; test: Lewis Rat Adjuvant-Induced Arthritis Model; assay type: in vivo
Procedure: Female inbred Lewis rats (Charles River) weighing 150-200 grams were injected intradermally in the tail with either 0.1 mL of Mycobacterium butyricum (Difco) in mineral oil (5 mg.mL) or with mineral oil alone. Starting on the day of innoculation and for 32 days, paw edema was determined for right and left hind limbs using the mercury displacemnt method. From day 1 some animals were treated with 30 mg/Kg p.o. MDL 29,355 once daily.

[2] = test system: Rat PMNL (intracellular calcium); test: Measurement of Intracellular Calcium (Fura-2) in fMLP-stimulated rat PMNL; assay type: cell-based; settings: for suppression of the second wave of intracellular calcium changes: fMLP-stimulated PMNL, preincubation with compound, FIG. 1
Procedure: Rat PMNL were obtained from exudates resulting from peritoneal injection of 6 mL of 8% sodium caseinate. Eighteen hours after injection rats were killed by carbon dioxide inhalation and the peritoneal cavity lavaged with Hank's balanced salt solution (HBSS). After concentration of the PMNL by centrifugation, contaminating erythrocytes were removed by hypotonic lysis. The PMNL were then washed twice by centrifugation (400×g for 10 minutes) and resuspended in HBSS. Cell viability was greater than 90% by Trypan Blue exclusion and greater than 90% of the cells were PMNL by Wright-Giemsa stain.
Intracellular calcium levels were obtained using Fura-2 as fluorescent indicator (Grynkiewicz et al., 1985). Fura-2 was loaded into PMNL as the acetoxymethyl ester (Fura-2/AM) using the method of Korchak et al., (1988). Specifically, 1×10^8 PMNL/mL were incubated in HBSS with 10 μM Fura-2/AM for 10 minutes at 37° C. The cells suspension was then diluted ten fold with HBSS and further incubated for another 20 minutes. The cells were then centrifuged (400×g for 8 minutes at 25° C.) and the PMNL (1×10^7 cells/mL) resuspended in HBSS containing 1% bovine serum albumin. Cells were stored at room temperature and used within 3 hours.
Intracellular calcium level determinations were made using a dual wavelength spectrofluorometer (Photon Technology International, New Brunswick, N.J.). Two mL of PMNL suspension (1×10^7 cells/mL) were stirred magnetically at 37° C. Cells were preincubated with the compounds for 15 minutes at 37° C. prior to activation. Where compounds were dissolved in DMSO and added directly, the DMSO never exceeded 0.3% in the final cell suspension. Total change in volume with addition of compounds or vehicle and stimuli never exceeded 3%. Intracellular calcium concentrations were calibrated by setting a maximum calcium level in the cells with the addition of 7 uM ionomycin to PMNL in HBSS containing 1% BSA. This was followed by treatment with 20 mM EGTA for 1 hour to obtain a minimum calcium level. […]

[3] = test system: Sprague-Dawley rats, Arthus reaction; test: Arthus Reaction in Rat Skin; assay type: in vivo
Procedure: Anesthetized male Sprague-Dawley rats (Charles River) weighing 200-250 grams received 100 mg/Kg i.v. sterile bovine serum albumin (BSA) solution (5 mg/mL). immediately after injection, the animals received an intradermal injection of 100 ug of rabbit anit-BSA in saline. This produces an immune complex mediated inflammation (Arthus reaction) where immune complexes fix complement releasing factors that attract neutrophils. The neutrophils then are activated causing local tissue damage as manifested in a hemorrhagic spot. The extent of the reaction is reflected in the size of the spot as measured by image analysis techniques.

[4] = test system: Sprague Dawley rats, carrageenin-induced paw edema; test: Carrageenin Induced Rat Paw Edema; assay type: in vivo; settings: i.p, one hour prior to carrageenin; read 3 hours after
Procedure: Charles River male Sprague Dawley rats weighing 90 to 100 grams were used. Inflammation of the left hind paw was induced by a 1% carrageenin solution (0.05 cc), injected into the plantar surface of the paw. The contralateral paw was injected with an equal volume of saline. Drugs were administered orally or i.p. (1 cc/100 grams) one hour prior to paw injection. Three hours following the carrageenin injection the difference in volume of the control and inflamed paw was measured. Each paw was immersed in a well of mercury and the volume of mercury displaced was recorded. Paws were uniformly dipped into the mercury up to the beginning of the hairline. A venous pressure transducer, coupled to an oscillographic recorder, was employed to measure the small volumes of mercury displaced. Each group measurement consists of the average of four rats, each with three separate measurements.

Compound	paw swelling reduction, day 20 ([1]; 30 mg/Kg p.o. once daily from day 1, day 20)	paw swelling inhibited, day 32 ([1]; 30 mg/Kg p.o. once daily from day 1, day 32, not significantly different from untreated controls)	animals never displaying adjuvant arthritis ([1]; 30 mg/Kg p.o. once daily, all control animals displayed arthritis)	suppression of the second wave of intracellular calcium changes [2]	hemorrhagic spot size reduction ([3]; i.p. 100 mg/Kg, 30 minutes before Arthus reaction)	hemorrhagic spot size reduction ([3]; intradermal 100ug with the antibody)	% Inhibition of carrageenin-induced paw edema [4]	relative inhibition of the second phase (calcium uptake) ([2]; MDL 101,240 vs MDL 29,355, fMLP stimulus)
O=C(C=Cc1ccncc1)c1ccccc1 [MDL 29,355, 1-phenyl-3-(4-pyridinyl)-2-propene-1-one]	36.4% ±16.6%	30.9%±22.4%	one of the 3 treated animals never displayed adjuvant arthritis	selective concentration-dependent suppression of the second wave of intracellular calcium changes	55.0%±16.8%	41.7% ±12.5%	51.4 ± 8.5%	
CN(C)c1ccc(C(=O)C=Cc2ccncc2)cc1 [MDL 101,240, 1-(4-dimethylaminophenyl)-3-(4-pyridinyl)-2-propene-1-one]				selective concentration-dependent suppression of the second wave of intracellular calcium changes				stronger inhibition for MDL 101,240 than for MDL 29,355
